Key:
[1] = biological target: T1, NS5B from the BK strain (genotype 1b) (Hepatitis C virus genotype 1b, UniProt P26663); experiment: Hepatitis C polymerase inhibition, NS5B BK strain, 33P-GTP filter assay; type: biochemical; conditions: Table 1B; NS5B BK strain; read-out: BK IC50
T1 construct: NS5B from the BK strain (genotype 1b) is expressed in E. coli as a protein in which the 21 C-terminal amino acids are replaced; made in house; host or cells: E. coli
Method in brief: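 Radiolabelled RNA synthesis was measured by filter capture and scintillation counting after EDTA stop. His-tagged, C-terminally truncated (Δ21) genotype 1b BK NS5B from E. coli, pre-exposed to compound for 15 min, copied a self-primed RNA template (~3 nM) with α-[33P]-GTP for 2 h at room temperature.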

[2] = biological target: BB7 (RNA-dependent RNA polymerase hepatitis C virus protein sequence derived from HCV replicon) (Hepatitis C virus genotype 1b, UniProt Q9WMX2); experiment: Hepatitis C polymerase inhibition, BB7 sequence; type: biochemical; conditions: Table 1B
Sequence of BB7 (RNA-dependent RNA polymerase hepatitis C virus protein sequence derived from HCV replicon) (Q9WMX2 2420-3010): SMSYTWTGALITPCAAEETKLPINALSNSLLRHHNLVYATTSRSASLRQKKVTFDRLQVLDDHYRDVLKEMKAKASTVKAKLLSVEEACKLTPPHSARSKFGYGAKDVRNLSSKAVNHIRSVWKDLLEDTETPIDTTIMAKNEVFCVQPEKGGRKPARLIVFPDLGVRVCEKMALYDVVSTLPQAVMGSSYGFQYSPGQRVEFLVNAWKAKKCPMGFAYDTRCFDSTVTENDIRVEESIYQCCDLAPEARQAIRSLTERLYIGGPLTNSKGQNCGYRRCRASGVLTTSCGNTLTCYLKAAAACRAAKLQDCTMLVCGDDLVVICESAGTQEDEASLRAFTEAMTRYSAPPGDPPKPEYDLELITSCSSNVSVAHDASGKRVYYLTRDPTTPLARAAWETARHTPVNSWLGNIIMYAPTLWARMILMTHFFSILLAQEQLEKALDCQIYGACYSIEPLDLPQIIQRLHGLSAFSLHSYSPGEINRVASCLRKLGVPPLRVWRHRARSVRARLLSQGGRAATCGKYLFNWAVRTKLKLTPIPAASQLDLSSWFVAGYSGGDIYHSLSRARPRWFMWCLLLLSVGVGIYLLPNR

T1 sequence (P26663 2420-2989): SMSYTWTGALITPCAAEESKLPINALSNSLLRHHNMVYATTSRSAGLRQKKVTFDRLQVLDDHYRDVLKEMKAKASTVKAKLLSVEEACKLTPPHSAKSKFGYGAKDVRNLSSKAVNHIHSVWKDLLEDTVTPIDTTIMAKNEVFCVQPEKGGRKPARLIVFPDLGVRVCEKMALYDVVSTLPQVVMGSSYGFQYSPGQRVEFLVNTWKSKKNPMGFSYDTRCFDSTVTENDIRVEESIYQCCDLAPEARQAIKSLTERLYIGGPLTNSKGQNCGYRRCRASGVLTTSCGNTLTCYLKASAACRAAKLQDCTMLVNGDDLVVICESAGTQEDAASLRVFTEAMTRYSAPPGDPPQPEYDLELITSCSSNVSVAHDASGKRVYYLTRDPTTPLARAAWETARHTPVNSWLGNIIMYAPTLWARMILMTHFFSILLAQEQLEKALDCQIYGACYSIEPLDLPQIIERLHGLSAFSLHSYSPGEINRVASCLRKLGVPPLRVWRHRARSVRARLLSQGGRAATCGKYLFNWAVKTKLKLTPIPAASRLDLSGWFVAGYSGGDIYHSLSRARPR

Structure (SMILES)	IC50 [1] [µM]	IC50 [2] [µM]
CCC(C)C1(CC(=O)O)OCCc2c1[nH]c1c(C)ccc(C#N)c21 (racemic) [Example 291, (1R*,10S)-[5-cyano-8-methyl-1-(1-methylpropyl)-1,3,4,9-tetrahydropyrano[3,4-b]indol-1-yl]acetic acid]	0.23	0.5
CC[C@H](C)[C@@]1(CC(=O)O)OCCc2c1[nH]c1c(F)ccc(C#N)c21 (racemic) [Example 313, (1R*,10S*)-[5-cyano-8-fluoro-1-(1-methylpropyl)-1,3,4,9-tetrahydropyrano[3,4-b]indol-1-yl]acetic acid]	1.8	1.5
CCC(C)C1(CC(=O)O)OCCc2c1[nH]c1c(F)ccc(C#N)c21 (racemic) [Example 314, (1R*,10S)-[5-cyano-8-fluoro-1-(1-methylpropyl)-1,3,4,9-tetrahydropyrano[3,4-b]indol-1-yl]acetic acid]	1.4	3.1
CC[C@@H](C)[C@@]1(C(=O)O)OCCc2c1[nH]c1c(C)ccc(C#N)c21 (racemic) [Example 336, (1R*,10R*)-[5-cyano-8-methyl-1-(1-methylpropyl)-1,3,4,9-tetrahydropyrano[3,4-b]indol-1-yl]carboxylic acid]	4.7	8.7
CC[C@H](C)[C@@]1(C(=O)O)OCCc2c1[nH]c1c(F)ccc(C#N)c21 (racemic) [Example 348, (1R*,10S*)-[5-cyano-8-fluoro-1-(1-methylpropyl)-1,3,4,9-tetrahydropyrano[3,4-b]indol-1-yl]carboxylic acid]	> 30	> 30
CC[C@H](C)[C@@]1(C(=O)O)OCCc2c1[nH]c1c(C)ccc(C#N)c21 (relative stereo) [Example 335, (1R*,10S*)-[5-cyano-8-methyl-(1-methylpropyl)-1,3,4,9-tetrahydropyrano[3,4-b]indol-1-yl]carboxylic acid]	> 30	> 30
CC[C@@H](C)[C@@]1(C(=O)O)OCCc2c1[nH]c1c(F)ccc(C#N)c21 (relative stereo) [Example 349, (1R*,10R*)-[5-cyano-8-fluoro-1-(1-methylpropyl)-1,3,4,9-tetrahydropyrano[3,4-b]indol--1-yl]carboxylic acid]	4.4	> 24
CC[C@@H](C)[C@@]1(CC(=O)O)OCCc2c1[nH]c1c(F)ccc(C#N)c21 (single isomer, unassigned) [Example 312, (1R*,10R*)-[5-cyano-8-fluoro-1-(1-methylpropyl)-1,3,4,9-tetrahydropyrano[3,4-b]indol-1-yl]acetic acid]	16	> 30
O=C(O)CC1(C2CCC2)OCCc2c1[nH]c1ccc(Cl)c(Cl)c21 (centres unmarked) [Example 235, (5,6-dichloro-1-cyclobutyl-1,3,4,9-tetrahydropyrano[3,4-b]indol-1-yl)acetic acid]	5.2	5.4
O=C(O)CC1(C2CCCC2)OCCc2c1[nH]c1ccc(Cl)c(Cl)c21 (centres unmarked) [Example 236, (5,6-dichloro-1-cyclopentyl-1,3,4,9-tetrahydropyrano[3,4-b]indol-1-yl)acetic acid]	10	9.6
COCC1(CC(=O)O)OCCc2c1[nH]c1ccc(Cl)c(Cl)c21 (centres unmarked) [Example 237, (5,6-Dichloro-1-methoxymethyl-1,3,4,9-tetrahydropyrano[3,4-b]indol-1-yl)acetic acid]	> 27	> 24
COCCC1(CC(=O)O)OCCc2c1[nH]c1ccc(Cl)c(Cl)c21 (centres unmarked) [Example 238, [5,6-dichloro-1-(2-methoxyethyl)-1,3,4,9-tetrahydropyrano[3,4-b]indol-1-yl]acetic acid]	19	> 30
O=C(O)CC1(CCC(F)(F)F)OCCc2c1[nH]c1ccc(Cl)c(Cl)c21 (centres unmarked) [Example 239, [5,6-dichloro-1-(3,3,3-trifluoropropyl)-1,3,4,9-tetrahydropyrano[3,4-b]indol-1-yl]acetic acid]	4.6	5.4
CCCC1(CC(=O)O)OCCc2c1[nH]c1cc(Cl)c(Cl)cc21 (centres unmarked) [Example 240, (6,7-dichloro-1-propyl-1,3,4,9-tetrahydropyrano[3,4-b]indol-1-yl)acetic acid]	8.9	18
CCC1(CC(=O)O)OCCc2c1[nH]c1c(Cl)ccc(Cl)c21 (centres unmarked) [Example 243, (5,8-dichloro-1-ethyl-1,3,4,9-tetrahydropyrano[3,4-b]indol-1-yl)acetic acid]	6.3	10
N#CCCCC1(CC(=O)O)OCCc2c1[nH]c1c(Cl)ccc(Cl)c21 (centres unmarked) [Example 244, [5,8-dichloro-1-(3-cyanopropyl)-1,3,4,9-tetrahydropyrano[3,4-b]indol-1-yl)acetic acid]	0.3	1.8
O=C(O)CC1(CCC(F)(F)F)OCCc2c1[nH]c1c(Cl)ccc(Cl)c21 (centres unmarked) [Example 245, [5,8-dichloro-1-(3,3,3-trifluoropropyl)-1,3,4,9-tetrahydropyrano[3,4-b]indol-1-yl]acetic acid]	0.4	0.74

Structure (SMILES)	IC50 [1] [µM]	IC50 [2] [µM]
COCC1(CC(=O)O)OCCc2c1[nH]c1c(Cl)ccc(Cl)c21 (centres unmarked) [Example 246, (5,8-dichloro-1-methoxymethyl-1,3,4,9-tetrahydropyrano[3,4-b]indol-1-yl)acetic acid]	> 30	> 30
COCCC1(CC(=O)O)OCCc2c1[nH]c1c(Cl)ccc(Cl)c21 (centres unmarked) [Example 247, [5,8-dichloro-1-(2-methoxyethyl)-1,3,4,9-tetrahydropyrano[3,4-b]indol-1-yl]acetic acid]	> 24	18
CCOCC1(CC(=O)O)OCCc2c1[nH]c1c(Cl)ccc(Cl)c21 (centres unmarked) [Example 248, (5,8-dichloro-1-ethoxymethyl-1,3,4,9-tetrahydropyrano[3,4-b]indol-1-yl)acetic acid]	> 30	> 30
CSCC1(CC(=O)O)OCCc2c1[nH]c1c(Cl)ccc(Cl)c21 (centres unmarked) [Example 249, (5,8-dichloro-1-methylthiomethyl-1,3,4,9-tetrahydropyrano[3,4-b]indol-1-yl)acetic acid]	7	12
CCSCC1(CC(=O)O)OCCc2c1[nH]c1c(Cl)ccc(Cl)c21 (centres unmarked) [Example 250, (5,8-dichloro-1-ethylthiomethyl-1,3,4,9-tetrahydropyrano[3,4-b]indol-1-yl)acetic acid]	3.7	3.9
C=CCCC1(CC(=O)O)OCCc2c1[nH]c1c(Cl)ccc(Cl)c21 (centres unmarked) [Example 251, [5,8-dichloro-1-(3-butenyl)-1,3,4,9-tetrahydropyrano[3,4-b]indol-1-yl]acetic acid]	1.7	3.5
O=C(O)CC1(C2CC2)OCCc2c1[nH]c1c(Cl)ccc(Cl)c21 (centres unmarked) [Example 252, (5,8-dichloro-1-cyclopropyl-1,3,4,9-tetrahydropyrano[3,4-b]indol-1-yl)acetic acid]	7.3	19
O=C(O)CC1(C2CCC2)OCCc2c1[nH]c1c(Cl)ccc(Cl)c21 (centres unmarked) [Example 253, (5,8-dichloro-1-cyclobutyl-1,3,4,9-tetrahydropyrano[3,4-b]indol-1-yl)acetic acid]	0.35	0.7
O=C(O)CC1(C2CCCC2)OCCc2c1[nH]c1c(Cl)ccc(Cl)c21 (centres unmarked) [Example 254, (5,8-dichloro-1-cyclopentyl-1,3,4,9-tetrahydropyrano[3,4-b]indol-1-yl)acetic acid]	3.3	5.8
O=C(O)CC1(C2CCCCC2)OCCc2c1[nH]c1c(Cl)ccc(Cl)c21 (centres unmarked) [Example 255, (5,8-dichloro-1-cyclohexyl-1,3,4,9-tetrahydropyrano[3,4-b]indol-1-yl)acetic acid]	> 30	15
CCC(C)C1(CC(=O)O)OCCc2c1[nH]c1c(Cl)ccc(Cl)c21 (centres unmarked) [Example 256, [5,8-dichloro-1-(1-methylpropyl)-1,3,4,9-tetrahydropyrano[3,4-b]indol-1-yl]acetic acid]	0.15	0.34
O=C(O)CC1(CC2CC2)OCCc2c1[nH]c1c(Cl)ccc(Cl)c21 (centres unmarked) [Example 257, (5,8-dichloro-1-cyclopropylmethyl-1,3,4,9-tetrahydropyrano[3,4-b]indol-1-yl)acetic acid]	1.9	2.9
O=C(O)CC1(CC2CCCC2)OCCc2c1[nH]c1c(Cl)ccc(Cl)c21 (centres unmarked) [Example 258, (5,8-dichloro-1-cyclopentylmethyl-1,3,4,9-tetrahydropyrano[3,4-b]indol-1-yl)acetic acid]	9.4	14
Cc1ccc(Cl)c2c3c([nH]c12)C(CC(=O)O)(C1CCC1)OCC3 (centres unmarked) [Example 259, (5-chloro-1-cyclobutyl-8-methyl-1,3,4,9-tetrahydropyrano[3,4-b]indol-1-yl)acetic acid]	0.5	1.6
CCCC1(CC(=O)O)OCCc2c1[nH]c1c(C)ccc(Cl)c21 (centres unmarked) [Example 260, (5-chloro-8-methyl-1-propyl-1,3,4,9-tetrahydropyrano[3,4-b]indol-1-yl)acetic acid]	0.4	1.2
CCCC1(CC(=O)O)OCCc2c1[nH]c1c(Cl)ccc(C)c21 (centres unmarked) [Example 262, (8-chloro-5-methyl-1-propyl-1,3,4,9-tetrahydropyrano[3,4-b]indol-1-yl)acetic acid]	2.7	8.3
O=C(O)CC1(CCC(F)(F)F)OCCc2c1[nH]c1c(Cl)ccc(C(F)(F)F)c21 (centres unmarked) [Example 263, [8-chloro-5-trifluoromethyl-1-(3,3,3-trifluoropropyl)-1,3,4,9-tetrahydropyrano[3,4-b]indol-1-yl]acetic acid]	1.3	3.2
